In data set [1] the target is T1, Bromodomain-containing protein 3 (Homo sapiens, UniProt Q15059). As to the kind of experiment: Inhibition of BRD3 (D1) (unknown origin) at 5 uM incubated for 30 mins using histone H4 peptide (1-21) K5/8/12/16Ac-biotin by alpha screen assay. On the technique in general: Alpha assays give light when donor and acceptor beads are brought close together.
Target sequence in this assay (Q15059 2-726 limits assumed): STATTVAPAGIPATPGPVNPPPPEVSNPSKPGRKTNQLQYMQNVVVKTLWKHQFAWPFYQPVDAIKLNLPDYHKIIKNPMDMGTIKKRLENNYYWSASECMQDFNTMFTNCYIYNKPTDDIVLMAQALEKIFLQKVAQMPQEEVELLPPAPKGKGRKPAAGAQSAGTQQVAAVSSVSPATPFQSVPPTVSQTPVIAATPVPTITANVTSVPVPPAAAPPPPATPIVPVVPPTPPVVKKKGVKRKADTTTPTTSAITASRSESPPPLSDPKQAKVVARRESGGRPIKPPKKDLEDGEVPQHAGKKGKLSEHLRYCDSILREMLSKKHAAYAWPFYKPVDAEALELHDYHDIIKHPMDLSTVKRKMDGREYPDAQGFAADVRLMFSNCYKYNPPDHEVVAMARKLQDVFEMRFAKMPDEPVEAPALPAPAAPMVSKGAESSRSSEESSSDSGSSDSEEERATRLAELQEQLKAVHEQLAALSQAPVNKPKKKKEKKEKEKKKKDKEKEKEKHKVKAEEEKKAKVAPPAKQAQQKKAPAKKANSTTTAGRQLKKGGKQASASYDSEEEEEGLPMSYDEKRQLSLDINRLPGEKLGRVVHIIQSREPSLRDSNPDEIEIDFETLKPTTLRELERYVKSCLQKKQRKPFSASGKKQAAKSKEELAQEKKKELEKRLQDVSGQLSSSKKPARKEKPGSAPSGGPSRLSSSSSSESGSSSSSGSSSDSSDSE
For data set [2], the target named is Bromodomain-containing protein 2 (Homo sapiens) (UniProt P25440). The experiment in a line: Inhibition of BRD2 (D1) (unknown origin) at 5 uM incubated for 30 mins using histone H4 peptide (1-21) K5/8/12/16Ac-biotin by alpha screen assay.
Sequence of Bromodomain-containing protein 2 (Homo sapiens) (P25440 whole entry, looked up): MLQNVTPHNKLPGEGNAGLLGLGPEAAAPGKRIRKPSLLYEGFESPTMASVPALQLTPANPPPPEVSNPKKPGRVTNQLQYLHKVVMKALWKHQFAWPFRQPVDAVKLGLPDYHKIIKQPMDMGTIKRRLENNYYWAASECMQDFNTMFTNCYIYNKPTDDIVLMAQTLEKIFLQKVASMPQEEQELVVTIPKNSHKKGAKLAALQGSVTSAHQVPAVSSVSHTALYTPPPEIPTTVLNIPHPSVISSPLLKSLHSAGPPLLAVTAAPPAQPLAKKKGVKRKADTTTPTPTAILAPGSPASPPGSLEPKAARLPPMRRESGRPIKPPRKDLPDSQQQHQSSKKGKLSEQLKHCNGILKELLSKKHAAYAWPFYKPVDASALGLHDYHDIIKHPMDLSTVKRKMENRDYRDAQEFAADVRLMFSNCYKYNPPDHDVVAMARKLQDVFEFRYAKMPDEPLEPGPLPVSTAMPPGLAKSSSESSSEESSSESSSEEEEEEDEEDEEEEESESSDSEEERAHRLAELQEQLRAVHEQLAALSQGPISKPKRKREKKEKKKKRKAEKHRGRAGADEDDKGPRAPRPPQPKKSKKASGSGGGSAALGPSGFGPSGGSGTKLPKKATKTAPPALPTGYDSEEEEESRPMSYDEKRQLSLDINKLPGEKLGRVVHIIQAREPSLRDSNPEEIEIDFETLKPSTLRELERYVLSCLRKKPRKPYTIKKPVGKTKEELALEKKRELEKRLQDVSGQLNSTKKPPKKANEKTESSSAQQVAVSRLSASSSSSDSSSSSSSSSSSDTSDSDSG
Data set [3] addresses T2, Bromodomain-containing protein 4 (Homo sapiens, UniProt O60885). As to the kind of experiment: Inhibition of BRD4 (D1) (unknown origin) at 5 uM incubated for 30 mins using histone H4 peptide (1-21) K5/8/12/16Ac-biotin by alpha screen assay.
The target of data set [4] is T2, Bromodomain-containing protein 4. As to the kind of experiment: Inhibition of BRD4 (D1) (unknown origin) incubated for 30 mins using histone H4 peptide (1-21) K5/8/12/16Ac-biotin by alpha screen assay.
Data set [5] deals with T1, Bromodomain-containing protein 3. The experiment in a line: Inhibition of BRD3 (D1) (unknown origin) incubated for 30 mins using histone H4 peptide (1-21) K5/8/12/16Ac-biotin by alpha screen assay.
Target sequence in this assay (Q15059 whole entry): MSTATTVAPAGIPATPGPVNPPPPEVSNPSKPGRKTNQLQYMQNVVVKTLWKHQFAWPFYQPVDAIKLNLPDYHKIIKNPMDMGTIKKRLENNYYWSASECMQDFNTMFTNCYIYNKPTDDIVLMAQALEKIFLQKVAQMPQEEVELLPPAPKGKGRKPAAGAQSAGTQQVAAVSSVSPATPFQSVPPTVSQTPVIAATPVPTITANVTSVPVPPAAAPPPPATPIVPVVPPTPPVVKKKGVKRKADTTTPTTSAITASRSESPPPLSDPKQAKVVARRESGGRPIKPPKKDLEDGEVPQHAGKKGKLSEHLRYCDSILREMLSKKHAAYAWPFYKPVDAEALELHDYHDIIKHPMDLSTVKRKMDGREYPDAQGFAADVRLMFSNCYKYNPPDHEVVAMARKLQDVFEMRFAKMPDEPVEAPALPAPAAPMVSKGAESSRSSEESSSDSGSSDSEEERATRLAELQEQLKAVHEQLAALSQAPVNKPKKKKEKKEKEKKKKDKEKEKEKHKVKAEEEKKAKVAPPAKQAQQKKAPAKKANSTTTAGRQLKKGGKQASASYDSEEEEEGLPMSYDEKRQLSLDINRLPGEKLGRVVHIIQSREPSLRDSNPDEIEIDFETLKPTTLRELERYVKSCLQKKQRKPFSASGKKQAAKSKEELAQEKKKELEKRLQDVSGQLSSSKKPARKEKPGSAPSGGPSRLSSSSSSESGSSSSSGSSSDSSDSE
Data set [6] is described as follows: Intrinsic clearance in mouse liver microsomes. Type of data set: ADME. The settings on record: read-out: CLH. (Liver microsomes are a subcellular fraction often used to study metabolism.)
Data set [7] in a line: Degradation half-life in mouse liver microsomes. Type of data set: ADME.
Data set [8] can be described thus: Intrinsic clearance in human liver microsomes. As to conditions: read-out: CLH. Type of data set: ADME.
A short description of data set [9]: Intrinsic clearance in rat liver microsomes. The format is ADME. As to conditions: read-out: CLH.
The nature of data set [10]: Degradation half-life in rat liver microsomes. The format is ADME.
The nature of data set [11]: Degradation half-life in human liver microsomes. The format is ADME.

SMILES strings stand for the structures. Active and inactive are the calls of the source. No cut-off for these calls is given here. Bounds are passed on as bounds.

For `COc1ccc(-c2cc(N)ccc2C)cc1S(=O)(=O)NC1CCCC1`, the inhibition entry in data set [1], in data set [2] and in data set [3] was “inactive” throughout.

Turning to `COc1ccc(-c2cnc(N)nc2)cc1S(=O)(=O)NC1CCCC1`, the inhibition entry in data set [1], in data set [2] and in data set [3] was “inactive” in each case.

Take `CC(=O)NCc1ccc(C)c(S(=O)(=O)NC2CCCC2)c1`: the inhibition result in [1], in data set [2] and in [3] was “inactive” each time.

As to `COc1ccc(-c2cn(C)nn2)cc1S(=O)(=O)NC1CCCC1`, the inhibition entry in [1], in data set [2] and in data set [3] was “inactive” in each case.

In the case of `COc1ccc(-c2cccc(N)c2C)cc1S(=O)(=O)NC1CCCC1`, the inhibition entry in [1], in data set [2] and in data set [3] was “inactive” in each case.

In the case of `COc1ccc(-c2ccc(N)nc2)cc1S(=O)(=O)NC1CCCC1`, the inhibition entry in [1], in [2] and in data set [3] was “inactive” each time.

For `COc1ccc(-c2ccccc2NS(C)(=O)=O)cc1S(=O)(=O)NC1CCCC1`, the inhibition entry in data set [1], in data set [2] and in data set [3] was “inactive” throughout.

What is called IC50 is the concentration needed to halve the response being measured. As to `COc1ccc(-c2cnn(C)n2)cc1S(=O)(=O)NC1CCCC1`, the inhibition entry in data set [3] was “Active”. Besides, the IC50 in data set [4] was 4 µM; in data set [5], 10 µM.

On to `Cc1ccc(-c2nnnn2C)cc1S(=O)(=O)NC1CCCC1`, for which the inhibition entry in data set [1], in data set [2] and in data set [3] was “inactive” in each case.

As to `COc1ccc(-c2ccc(N)nc2C)cc1S(=O)(=O)NC1CCCC1`, the inhibition result in [1], in data set [2] and in data set [3] was “Active” each time.

`Cc1ccc(-n2cnnc2C)cc1S(=O)(=O)NC1CCCC1`: the inhibition result in data set [1], in data set [2] and in [3] was “inactive” throughout. Also, the half-inhibitory concentration (IC50) in data set [4] and in data set [5] was at least 10 µM throughout.

One may read the half-life as how long it takes for the measured level to halve. A high value points to slow loss. Consider `Cc1sc2c(c1C)C(c1ccc(Cl)cc1)=N[C@@H](CC(=O)OC(C)(C)C)c1nnc(C)n1-2`, for which the microsomal CLint in [6] was determined as 166 µL/min/mg; in data set [8], 136 µL/min/mg; in data set [9], 129 µL/min/mg. For the same compound, the half-life in [7] is 0.117 h.

As to `COc1cc2c(cc1-c1c(C)noc1C)ncc1[nH]c(=O)n([C@H](C)c3ccccn3)c12`, the half-life in data set [10] was 3.45 h; in data set [7] it was above 4.12 h; in [11] it was 3.9 h. The microsomal CLint is below 7 µL/min/mg in data set [6], 7 µL/min/mg in data set [8] and 8 µL/min/mg in data set [9].

In the case of `COc1ccc(-c2ccc(N)[n+]([O-])c2C)cc1S(=O)(=O)NC1CCCC1`, the inhibition entry in data set [1] and in data set [3] was “Active” throughout.

In the case of `Cc1ccc(-c2nnn(C)n2)cc1S(=O)(=O)NC1CCCC1`, the inhibition result in data set [1], in data set [2] and in data set [3] was “inactive” in each case.

For `COc1ccc(-c2c(C)n[nH]c2C)cc1S(=O)(=O)NC1CCCC1`, the inhibition entry in [1], in data set [2] and in [3] was “Active” each time. Also, the IC50 is 2.89 µM in data set [4] and 1.32 µM in [5].

For `Cc1ccc(-c2c(C)noc2C)cc1S(=O)(=O)NC1CCCC1`, the half-life turned out to be 0.0333 h in data set [10], 0.0667 h in data set [7] and 0.117 h in data set [11]. Further, the microsomal CLint was 461 µL/min/mg in data set [6], 246 µL/min/mg in [8] and 711 µL/min/mg in data set [9]. The inhibition entry in data set [1], in [2] and in data set [3] was “Active” in each case.

`Cc1ccc(NS(C)(=O)=O)cc1S(=O)(=O)NC1CCCC1`: the inhibition result in [1], in data set [2] and in data set [3] was “inactive” in each case.

In the case of `COc1ccc(-c2c(C)noc2C)cc1S(=O)(=O)NC1CCCC1`, the inhibition result in [1], in [2] and in data set [3] was “Active” each time. In addition, the values for the IC50 in data set [4] and in data set [5] were 1.2 µM and 0.2 µM, respectively.

Take `COc1ccc(-c2ccsc2C)cc1S(=O)(=O)NC1CCCC1`: the inhibition entry in data set [1], in data set [2] and in data set [3] was “inactive” each time.

Take `COc1ccc(-c2cn[nH]c2)cc1S(=O)(=O)NC1CCCC1`: the inhibition result in [1], in data set [2] and in data set [3] was “inactive” throughout.

As for `Cc1ccc(-n2c(C)nnc2C)cc1S(=O)(=O)NC1CCCC1`, the half-life in data set [10] amounted to 1.78 h; in data set [7], 1.42 h; in [11], 2.88 h. Also, the microsomal CLint in [6] came out at 20 µL/min/mg; in [8], 10 µL/min/mg; in data set [9], 16 µL/min/mg. Besides, the inhibition result in data set [1], in [2] and in data set [3] was “inactive” each time. Also, the 50% inhibitory concentration (IC50) in data set [4] and in data set [5] was at least 10 µM each time.

With `COc1ccc(-c2c(C)nn(C)c2C)cc1S(=O)(=O)NC1CCCC1`, the inhibition entry in data set [1], in data set [2] and in [3] was “inactive” throughout.

For the compound `COc1ccc(-c2cc[n+]([O-])cc2)cc1S(=O)(=O)NC1CCCC1`, the inhibition entry in [1], in data set [2] and in data set [3] was “inactive” each time.

Consider `Cc1nc(-c2ccc(C)c(S(=O)(=O)NC3CCCC3)c2)no1`, for which the inhibition entry in [1], in data set [2] and in data set [3] was “inactive” each time.

Turning to `COc1ccc(-c2ccc(NC(C)=O)cc2)cc1S(=O)(=O)NC1CCCC1`, the inhibition result in [1], in [2] and in data set [3] was “inactive” throughout.

Take `COc1ccc(-c2ccc(N)cc2C)cc1S(=O)(=O)NC1CCCC1`: the inhibition result in data set [1], in [2] and in data set [3] was “inactive” in each case.

On to `CC(=O)Nc1ccc(C)c(S(=O)(=O)NC2CCCC2)c1`, for which the inhibition result in [1], in data set [2] and in data set [3] was “inactive” throughout.

With `COc1ccc(-c2ccnn2C)cc1S(=O)(=O)NC1CCCC1`, the inhibition entry in data set [1], in data set [2] and in data set [3] was “Active” throughout. The IC50 was 10.1 µM in data set [4] and 1.71 µM in [5].

On to `COc1ccc(-c2ccncc2)cc1S(=O)(=O)NC1CCCC1`, for which the inhibition result in data set [1], in data set [2] and in [3] was “inactive” each time.

As to `COc1ccc(-c2cccnc2)cc1S(=O)(=O)NC1CCCC1`, the inhibition entry in data set [1], in data set [2] and in data set [3] was “inactive” throughout.

For the compound `COc1ccc(-c2ccsc2)cc1S(=O)(=O)NC1CCCC1`, the inhibition entry in data set [1], in [2] and in data set [3] was “inactive” in each case.

Take `COc1ccc(-c2cccc(NC(C)=O)c2)cc1S(=O)(=O)NC1CCCC1`: the inhibition entry in [1], in data set [2] and in data set [3] was “inactive” in each case.

Values taken from ChEMBL document CHEMBL3621173, “Evaluation of functional groups as acetyl-lysine mimetics for BET bromodomain inhibition” (Medchemcomm, 2014).
